Assay results: patent US8399444B2, “Bicyclic imidazole as DP1 receptor antagonists” (GlaxoSmithKline Intellectual Property Development Ltd., priority 2008, dated 2013)
“And” between values parts separate entries of the source, which are not always exact repeats. Identical values can stand only once. Counter-ions that a name gives are not always drawn.

Legend:
[1] = target: T1, Prostanoid DP1 receptor (Homo sapiens, UniProt Q13258); assay: Measurement of cAMP using TR-FRET LANCE assay: Prostanoid DP1; type: cell-based; settings: CHO cells expressing DP1 receptor, antagonism of PGD2 (EC80) cAMP response; read-out: pKi value (converted)
T1 construct: expressed in transfected cells; host or cells: CHO K1
T1 sequence (Q13258 1-359): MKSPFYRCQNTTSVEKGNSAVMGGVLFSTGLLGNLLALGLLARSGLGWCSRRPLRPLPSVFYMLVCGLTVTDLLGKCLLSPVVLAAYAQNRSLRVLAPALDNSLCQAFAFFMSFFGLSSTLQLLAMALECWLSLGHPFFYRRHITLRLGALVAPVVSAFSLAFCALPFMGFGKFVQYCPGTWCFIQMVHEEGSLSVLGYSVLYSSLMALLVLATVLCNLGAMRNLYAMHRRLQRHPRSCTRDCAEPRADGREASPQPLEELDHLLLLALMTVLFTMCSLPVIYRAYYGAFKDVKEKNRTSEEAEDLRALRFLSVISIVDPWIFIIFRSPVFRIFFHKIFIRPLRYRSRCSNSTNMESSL
Method: CHO K1 cells, stably expressing the Prostanoid DP1 receptor, were maintained in culture in DMEM/F12, supplemented with 5% FBS, 2 mM L-glutamine, 400 μg/mL hygromycin B in 95%: 5% air: CO2 at 37° C. Following harvest from culture, cells were centrifuged at 250 g at 4° C. for 10 minutes and re-suspended in ice cold dialysed FCS. Once the cells were in mono-suspension they were slowly mixed with an equal volume of ice cold 80% dialysed FCS: 20% DMSO (pre-mixed and chilled several hours earlier). The cells were then aliquoted into 1 mL tubes within a 96 well block (pre-cooled to 4° C.). Once sealed, the tubes were frozen in a controlled rate freezer. The frozen cells were then transferred to a −140° C. freezer for long term storage.
Measurement of cAMP Using TR-FRET LANCE™ Assays: Prostanoid DP1
The potency of the compounds were determined using a LANCE™ cAMP assay kit as per the kit instructions. Briefly, CHO cells expressing DP1 receptor were thawed at 37° C., diluted in PBS and centrifuged at 1000 RPM for 5 minutes. Cells were then re-suspended (2 million cells/mL) in stimulation buffer (HBSS containing 0.01% BSA, 500 μM FAC IBMX, 5 mmol/L HEPES adjusted to pH 7.4 with KOH.
Briefly, cells were added (10,000 cells/well at 5 μL addition) to low volume white Greiner polypropylene 384-well plate assay plates containing 0.1 μl test compound. Following a 15 minute incubation at room temperature, 5 μl of antibody solution (stimulation buffer containing Alexia fluor 647) containing PGD2 at twice the determined EC80 concentration was added. Plates were incubated for a further 30 minutes at room temperature then detection mixture was added (kit components; detection buffer, europiumW8044-labelled streptavidin and biotin cAMP at 10 μl/well). Plates were covered and incubated the room temperature for 1 hour before reading on a Viewlux Microplate Imager using TR-FRET label settings.
All compounds were dissolved in DMSO at a concentration of 10 mM and were prepared in 100% DMSO using a 1 in 4 dilution step to provide 11-point concentration—response curves. The dilutions were transferred to the assay plates ensuring that the DMSO concentration was constant across the plate at 1% for all assays.
All data were normalised to the mean of 16 high and 16 low control wells on each plate. A four parameter curve fit of the following form was then applied.
Where a is the minimum, b is the Hill slope, c is the XC50, and d is the maximum. Data are presented as the mean pXC50 (negative log 10 of the molar XC50) with the standard deviation (SD) of number of tests in the experiments.

[2] = tested on: asthma model; settings: guinea pig; cited from earlier work
[3] = tested on: allergic rhinitis model; settings: oral administration, guinea pig; cited from earlier work

Structure (SMILES) | Ki [1] | antigen-induced eosinophil infiltration into the lung [2] | early and late nasal responses [3]
CC(C)c1nc2c(n1[C@H](C)c1ccccc1)C(CC(=O)O)CCC2 (stereo partly drawn) [Example 31, {2-(1-methylethyl)-1-[(1R)-1-phenylethyl]-4,5,6,7-tetrahydro-1H-benzimidazol-7-yl}acetic acid ammonia salt] | ≤ 100 nM | – | –
CC(C)c1nc2c(n1Cc1ccc(Cl)c(Cl)c1)C(OCC(=O)O)CCCC2 (centres unmarked) [Example 35, {[3-[(3,4-dichlorophenyl)methyl]-2-(1-methylethyl)-3,4,5,6,7,8-hexahydrocyclohepta[d]imidazol-4-yl]oxy}acetic acid hydrochloride] | ≤ 100 nM | – | –
CC1(C)[C@H]2C[C@H](C/C=C\CCCC(=O)O)[C@@H](NC(=O)c3csc4ccc(O)cc34)[C@@H]1C2 [Example S-5751] | – | alleviated | inhibited

More lines, main results first:

Ki [1] | Structure (SMILES) | antigen-induced eosinophil infiltration into the lung [2] | early and late nasal responses [3]
≤ 10 nM | CC(C)c1nc2c(n1Cc1ccc(Cl)c(Cl)c1)C(CC(=O)O)CCC2 (centres unmarked) [Example 29, [1-[(3,4-dichlorophenyl)methyl]-2-(1-methylethyl)-4,5,6,7-tetrahydro-1H-benzimidazol-7-yl]acetic acid trifluoroacetic acid salt] | – | –
≤ 100 nM | CC(C)c1nc2c(n1[C@H](C)c1ccc(Cl)cc1)C(CC(=O)O)CCC2 (stereo partly drawn) [Example 33, [1-[(1R)-1-(4-chlorophenyl)ethyl]-2-(1-methylethyl)-4,5,6,7-tetrahydro-1H-benzimidazol-7-yl]acetic acid ammonia salt] | – | –
≤ 10 nM | CC(C)c1nc2c(n1Cc1ccc(Cl)c(Cl)c1)C(OCC(=O)O)CCCC2 (centres unmarked) [Example 34, {[3-[(3,4-dichlorophenyl)methyl]-2-(1-methylethyl)-3,4,5,6,7,8-hexahydrocyclohepta[d]imidazol-4-yl]oxy}acetic acid ammonia salt] | – | –
≤ 100 nM and ≤ 10 nM and ~2.51 nM | CC(C)c1nc2c(n1Cc1ccc(Cl)c(Cl)c1)[C@@H](CC(=O)O)CCC2 [Example 40, [(7R)-1-[(3,4-dichlorophenyl)methyl]-2-(1-methylethyl)-4,5,6,7-tetrahydro-1H-benzimidazol-7-yl]acetic acid] | – | –
